For the experiment, the system named is γ-secretase. In words: Cellular γ-secretase assay (inhibition of Aβ42 secretion, AlphaLisa). It counts as cell-based. The conditions noted are these: Human neuroglioma H4 cells overexpressing human APP695 Swedish double mutation; 24 hr compound incubation; secreted Aβ42 in supernatant. The method, then: Cellular γ-Secretase Assay
Human neuroglioma H4 cells overexpressing human APP695 with the Swedish double mutation (K595N/M596L) were plated at 30,000 cells/well/100 μl in 96-well plates in IMDM media containing 10% FCS, 0.2 mg/l Hygromycin B and incubated at 37° C., 5% CO2.
3-4 hr post plating, compounds are a diluted in media and 50 μl is added as 1.5-fold concentrate to achieve the final concentration. Compound incubation is performed for 24 hr. Final doses typically range from 4 μM down to 0.0013 μM in half-log steps resulting in a eight point dose response curve.
Appropriate controls using vehicle only and reference compound were applied to this assay. The final concentration of Me2SO was 0.4%.
After incubation at 37° C., 5% CO2, the supernatant was subjected to quantification of secreted Aβ42 by the means of an AlphaLisa assay kit (Human Amyloid beta 1-42 Kit: Cat # AL203C, Perkin Elmer). 20 μl of the cell culture supernatant was transferred to an assay plate. Then 10 μl of a mixture of the AlphaLisa coupled capture antibody and the biotinylated detection antibody was added and incubated for 3 hours at room temperature while softly shaking the assay plate. After a further addition of 20 μl of the Donor beads the assay plate was incubated for 30 min at room temperature and constant shaking without exposure to direct light.
The assay plate was then read on a Paradigm AlphaLisa Reader using the build-in program with excitation at 680 nm and emission at […].
The measured signals were then used to calculate IC50 values for inhibition of Aβ42 secretion by nonlinear regression fit analysis using XLfit 5.3 software (IDBS).
(In general: Bead proximity is the source of the signal in Alpha formats.)
For orientation: EC50 means the concentration that produces a half-maximal response. Lower therefore signals greater potency. With `FC(F)(F)c1ccc(N2CCCCn3nc(N[C@@H]4[C@@H]5CC[C@H]4CN(c4ccnc(C(F)(F)F)c4)C5)nc32)cc1` [Example 7, 4-[4-(trifluoromethyl)phenyl]-N-[(1R,5S,8S)-3-[2-(trifluoromethyl)-4-pyridyl]-3-azabicyclo[3.2.1]octan-8-yl]-5,6,7,8-tetrahydro-[1,2,4]triazolo[1,5-a][1,3]diazepin-2-amine], the EC50 came out at 30.2 nM. That is a double-digit nanomolar value.
Next, `Fc1ccc(N2CCCCn3nc(N[C@@H]4[C@@H]5CC[C@H]4CN(c4ccnc(C(F)(F)F)c4)C5)nc32)cc1F` [Example 22, 4-(3,4-difluorophenyl)-N-[(1R,5S,8S)-3-[2-(trifluoromethyl)-4-pyridyl]-3-azabicyclo[3.2.1]octan-8-yl]-5,6,7,8-tetrahydro-[1,2,4]triazolo[1,5-a][1,3]diazepin-2-amine]: 34.8 nM.
Next, `Cc1ccc(N2CCCn3nc(N[C@@H]4[C@@H]5CC[C@H]4CN(c4ccnc(C(F)(F)F)c4)C5)nc32)cc1F` [Example 10, 4-(3-fluoro-4-methyl-phenyl)-N-[(1R,5S,8S)-3-[2-(trifluoromethyl)-4-pyridyl]-3-azabicyclo[3.2.1]octan-8-yl]-6,7-dihydro-5H-[1,2,4]triazolo[1,5-a]pyrimidin-2-amine]: 31.2 nM.
In turn, `Cc1cc(N2C[C@H]3CC[C@@H](C2)[C@@H]3Nc2nc3n(n2)CCCCN3c2ccc(F)c(F)c2)ncn1` [Example 23, 4-(3,4-difluorophenyl)-N-[(1R,5S,8S)-3-(6-methylpyrimidin-4-yl)-3-azabicyclo[3.2.1]octan-8-yl]-5,6,7,8-tetrahydro-[1,2,4]triazolo[1,5-a][1,3]diazepin-2-amine] had an EC50 of 23.3 nM.
To `Fc1ccc(N2CCCn3nc(N[C@@H]4[C@@H]5CC[C@H]4CN(c4ccnc(Cl)c4)C5)nc32)cc1F` [Example 2, N-[(1R,5S,8S)-3-(2-chloro-4-pyridyl)-3-azabicyclo[3.2.1]octan-8-yl]-4-(3,4-difluorophenyl)-6,7-dihydro-5H-[1,2,4]triazolo[1,5-a]pyrimidin-2-amine] belongs 5.9 nM.
Next, `Fc1ccc(N2CCCCn3nc(N[C@@H]4[C@@H]5CC[C@H]4CN(c4cnnc(Cl)c4)C5)nc32)cc1F` [Example 25, N-[(1R,5S,8S)-3-(6-chloropyridazin-4-yl)-3-azabicyclo[3.2.1]octan-8-yl]-4-(3,4-difluorophenyl)-5,6,7,8-tetrahydro-[1,2,4]triazolo[1,5-a][1,3]diazepin-2-amine]: 23.4 nM.
To `Fc1ccc(N2CCn3nc(N[C@@H]4[C@@H]5CC[C@H]4CN(c4ccnc(C(F)(F)F)c4)C5)nc32)cc1F` [Example 4, 4-(3,4-difluorophenyl)-N-[(1R,5S,8S)-3-[2-(trifluoromethyl)-4-pyridyl]-3-azabicyclo[3.2.1]octan-8-yl]-5,6-dihydroimidazo[1,2-b][1,2,4]triazol-2-amine] belongs 89.2 nM; to `Cc1cc(N2C[C@H]3CC[C@@H](C2)[C@@H]3Nc2nc3n(n2)CCCN3c2ccc(F)c(F)c2)ncn1` [Example 3, 4-(3,4-difluorophenyl)-N-[(1R,5S,8S)-3-(6-methylpyrimidin-4-yl)-3-azabicyclo[3.2.1]octan-8-yl]-6,7-dihydro-5H-[1,2,4]triazolo[1,5-a]pyrimidin-2-amine], 26.4 nM.
Turning to `Cc1cc(N2C[C@H]3CC[C@@H](C2)[C@@H]3Nc2nc3n(n2)CCCN3c2ccc(C)c(F)c2)ncn1` [Example 11, 4-(3-fluoro-4-methyl-phenyl)-N-[(1R,5S,8S)-3-(6-methylpyrimidin-4-yl)-3-azabicyclo[3.2.1]octan-8-yl]-6,7-dihydro-5H-[1,2,4]triazolo[1,5-a]pyrimidin-2-amine], the EC50 amounted to 27.8 nM.
To `Cc1ncnc(N2C[C@H]3CC[C@@H](C2)[C@@H]3Nc2nc3n(n2)CCCN3c2ccc(F)c(F)c2)c1F` [Example 19, 4-(3,4-difluorophenyl)-N-[(1R,5S,8S)-3-(5-fluoro-6-methyl-pyrimidin-4-yl)-3-azabicyclo[3.2.1]octan-8-yl]-6,7-dihydro-5H-[1,2,4]triazolo[1,5-a]pyrimidin-2-amine] belongs 13.9 nM.
In the case of `Cc1cc(N2C[C@H]3CC[C@@H](C2)[C@@H]3Nc2nc3n(n2)CCCCN3c2ccc(C(F)(F)F)cc2)ncn1` [Example 9, N-[(1R,5S,8S)-3-(6-methylpyrimidin-4-yl)-3-azabicyclo[3.2.1]octan-8-yl]-4-[4-(trifluoromethyl)phenyl]-5,6,7,8-tetrahydro-[1,2,4]triazolo[1,5-a][1,3]diazepin-2-amine], the EC50 came out at 19.2 nM.
Next, `COc1cc(N2C[C@H]3CC[C@@H](C2)[C@@H]3Nc2nc3n(n2)CCCN3c2ccc(F)c(F)c2)ccn1` [Example 21, 4-(3,4-difluorophenyl)-N-[(1R,5S,8S)-3-(2-methoxy-4-pyridyl)-3-azabicyclo[3.2.1]octan-8-yl]-6,7-dihydro-5H-[1,2,4]triazolo[1,5-a]pyrimidin-2-amine]: 14.7 nM.
Next, `COc1cc(N2C[C@H]3CC[C@@H](C2)[C@@H]3Nc2nc3n(n2)CCCN3c2ccc(F)c(F)c2)cnn1` [Example 18, 4-(3,4-difluorophenyl)-N-[(1R,5S,8S)-3-(6-methoxypyridazin-4-yl)-3-azabicyclo[3.2.1]octan-8-yl]-6,7-dihydro-5H-[1,2,4]triazolo[1,5-a]pyrimidin-2-amine]: 26.4 nM; `Cc1cc(N2C[C@H]3CC[C@@H](C2)[C@@H]3Nc2nc3n(n2)CCCN3c2ccc(C(F)(F)F)cc2)ncn1` [Example 8, N-[(1R,5S,8S)-3-(6-methylpyrimidin-4-yl)-3-azabicyclo[3.2.1]octan-8-yl]-4-[4-(trifluoromethyl)phenyl]-6,7-dihydro-5H-[1,2,4]triazolo[1,5-a]pyrimidin-2-amine]: 11.7 nM; `Fc1ccc(N2CCCn3nc(N[C@@H]4[C@@H]5CC[C@H]4CN(c4cnnc(Cl)c4)C5)nc32)cc1F` [Example 16, N-[(1R,5S,8S)-3-(6-chloropyridazin-4-yl)-3-azabicyclo[3.2.1]octan-8-yl]-4-(3,4-difluorophenyl)-6,7-dihydro-5H-[1,2,4]triazolo[1,5-a]pyrimidin-2-amine]: 17.2 nM.
Next, `COc1cc(N2C[C@H]3CC[C@@H](C2)[C@@H]3Nc2nc3n(n2)CCCN3c2ccc(F)c(F)c2)ncn1` [Example 14, 4-(3,4-difluorophenyl)-N-[(1R,5S,8S)-3-(6-methoxypyrimidin-4-yl)-3-azabicyclo[3.2.1]octan-8-yl]-6,7-dihydro-5H-[1,2,4]triazolo[1,5-a]pyrimidin-2-amine]: 15.5 nM; `Cc1cc(N2C[C@H]3CC[C@@H](C2)[C@@H]3Nc2nc3n(n2)CCCN3c2ccc(F)c(F)c2)cnn1` [Example 20, 4-(3,4-difluorophenyl)-N-[(1R,5S,8S)-3-(6-methylpyridazin-4-yl)-3-azabicyclo[3.2.1]octan-8-yl]-6,7-dihydro-5H-[1,2,4]triazolo[1,5-a]pyrimidin-2-amine]: 23.1 nM; `Cc1cc(N2C[C@H]3CC[C@@H](C2)[C@@H]3Nc2nc3n(n2)CCN3c2ccc(C(F)(F)F)cc2)ncn1` [Example 12, N-[(1R,5S,8S)-3-(6-methylpyrimidin-4-yl)-3-azabicyclo[3.2.1]octan-8-yl]-4-[4-(trifluoromethyl)phenyl]-5,6-dihydroimidazo[1,2-b][1,2,4]triazol-2-amine]: 26.8 nM.
In the case of `Fc1ccc(N2CCCn3nc(N[C@@H]4[C@@H]5CC[C@H]4CN(c4cc(Cl)ncn4)C5)nc32)cc1F` [Example 17, N-[(1R,5S,8S)-3-(6-chloropyrimidin-4-yl)-3-azabicyclo[3.2.1]octan-8-yl]-4-(3,4-difluorophenyl)-6,7-dihydro-5H-[1,2,4]triazolo[1,5-a]pyrimidin-2-amine], the EC50 worked out at 58 nM.
Next, `COc1cc(N2C[C@H]3CC[C@@H](C2)[C@@H]3Nc2nc3n(n2)CCCCN3c2ccc(F)c(F)c2)ncn1` [Example 24, 4-(3,4-difluorophenyl)-N-[(1R,5S,8S)-3-(6-methoxypyrimidin-4-yl)-3-azabicyclo[3.2.1]octan-8-yl]-5,6,7,8-tetrahydro-[1,2,4]triazolo[1,5-a][1,3]diazepin-2-amine]: 80.4 nM; `Cc1cc(N2C[C@H]3CC[C@@H](C2)[C@@H]3Nc2nc3n(n2)CCN3c2ccc(F)c(F)c2)ncn1` [Example 5, 4-(3,4-difluorophenyl)-N-[(1R,5S,8S)-3-(6-methylpyrimidin-4-yl)-3-azabicyclo[3.2.1]octan-8-yl]-5,6-dihydroimidazo[1,2-b][1,2,4]triazol-2-amine]: 35.6 nM.
To `Fc1ccc(N2CCCn3nc(N[C@@H]4[C@@H]5CC[C@H]4CN(c4ccnc(C(F)(F)F)c4)C5)nc32)cc1F` [Example 1, 4-(3,4-difluorophenyl)-N-[(1R,5S,8S)-3-[2-(trifluoromethyl)-4-pyridyl]-3-azabicyclo[3.2.1]octan-8-yl]-6,7-dihydro-5H-[1,2,4]triazolo[1,5-a]pyrimidin-2-amine] belongs 15.8 nM.

(Values after patent publication US10899766B2, “Bridged piperidine derivatives” (Hoffmann-La Roche Inc., priority 2016, dated 2021).)
